Data: patent US6355633B1, “Aryl sulfonic acids and derivatives as FSH antagonists” (American Home Products Corporation, priority 1999, dated 2002)

Key:
FSH receptor [1] = target: T1, FSH receptor (Homo sapiens, UniProt P23945); test: FSH Receptor Radioligand Membrane Binding Standard Pharmacological Test Procedure; design: expressed in transfected cells; conditions: [125I]FSH binding to membranes of CHO cells stably transfected with the human FSH receptor
T1 sequence (P23945 18-695): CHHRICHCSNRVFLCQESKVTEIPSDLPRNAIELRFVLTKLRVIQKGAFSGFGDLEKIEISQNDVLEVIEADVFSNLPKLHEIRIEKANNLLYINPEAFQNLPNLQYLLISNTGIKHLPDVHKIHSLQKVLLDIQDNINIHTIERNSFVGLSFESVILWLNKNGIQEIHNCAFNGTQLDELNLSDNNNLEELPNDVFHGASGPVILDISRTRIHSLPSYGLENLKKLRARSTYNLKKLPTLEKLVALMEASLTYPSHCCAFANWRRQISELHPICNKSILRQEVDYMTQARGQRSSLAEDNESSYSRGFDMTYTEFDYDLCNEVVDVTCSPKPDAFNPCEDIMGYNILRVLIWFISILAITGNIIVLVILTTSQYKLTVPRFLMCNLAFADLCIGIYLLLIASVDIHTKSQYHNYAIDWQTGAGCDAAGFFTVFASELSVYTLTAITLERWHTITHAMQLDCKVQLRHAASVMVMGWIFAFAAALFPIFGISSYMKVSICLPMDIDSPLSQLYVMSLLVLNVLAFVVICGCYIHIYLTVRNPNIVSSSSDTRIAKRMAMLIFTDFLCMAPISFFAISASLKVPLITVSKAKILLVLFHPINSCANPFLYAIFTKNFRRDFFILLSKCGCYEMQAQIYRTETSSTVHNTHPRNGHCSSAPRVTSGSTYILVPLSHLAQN
Description: FSH Receptor Radioligand Membrane Binding Standard Pharmacological Test Procedure
Membrane Source: Chinese hamster ovarian cells stably transfected with the human FSH receptor were cultured (Ultra CHO medium containing 1% fetal bovine serum and 200 μg/mL G418) in and harvested. Cells were collected by centrifugation and resulting cell pellets were frozen and stored at −70° C.
Membrane Receptor Preparation: Frozen cell pellets were weighed and resuspended in binding buffer to a final concentration of 30 mg wet weight/mL. Cell suspension for each pellet was homogenized using a Tempest homogenizer (setting=1; 5 strokes; VirTis, Gardiner, N.Y.). Cell homogenates were pooled and 35 mL aliquots were transferred to 50-mL polypropylene copolymer centrifuge tubes (Nalgene cat. #3110-0500). Tubes were spun at 12,000 rpm (SS34 rotor) for 12 min at 4° C. Resulting supernatant fractions were discarded and pellets were stored at −70° C. until use. On the day of the procedure, 35 mL binding buffer was added to each tube (35 mL membrane suspension was sufficient for three 96-well plates). The membrane pellet was dispersed by trituration using a pipet. The resulting suspension wass homogenized using a Tempest homogenizer (3 strokes at setting=1).
Receptor Binding Test procedure: Membrane homogenate (100 μl) was added to each well of a 96-well microtiter plate (Falcon # 3077). All reactions were tested in triplicate. Test compound solutions (50 μl) were added to the designated wells. Total bound counts were determined by adding 50 μl binding buffer containing 4% DMSO to the designated wells. […] Plates were pre-incubated for 15 min at room temperature on shaking platform (setting=3). After preincubation [^125I]FSH (50 μl) was added to each well and plates were incubated for 2 h at room temperature on shaking platform (setting=3). The reaction was terminated by transfer of the membrane preparation to glass fiber filters (Blue Mat #11740; 102×256 mm; Skatron Instruments, Sterling, Va.) that had been pretreated with 1% BSA in wash buffer for at least 30 min, but not longer than 1 h using a 96-well microtiter vacuum harvester (Skatron Instruments). The membrane preparation was washed with 5 cycles of ice-cold wash buffer (200 μl/well/cycle) followed by a pulse wash of 3 cycles (100 μl/well/cycle). The total wash volume per well was 1.3 mL. The filters were dried by a 10 sec aspiration. Disks corresponding to each well of the microtiter plate were punched out of the filter mat into 12×75 mm polypropylene tubes. The radioactivity present on each of the disks was measured using a gamma counter.
An FSH dose response curve (0.001, 0.01, 0.1, 1, 10, and 100 nM) was generated for each binding procedure to monitor procedure to procedrue variability.
FSH Receptor Radioligand Membrane Binding Procedure Buffers and Reagents
Binding buffer is prepared in 11 volumes containing Trizma-HCl, MgCl2, CaCl2 and sodium azide, the pH was adjusted to 7.2 with NaOH, and stored at 4° C. until use. BSA was weighed out on the day of the procedure and added to the amount of buffer required for the procedure (usually 150 mL). The protease inhibitors were prepared as 1 mg/mL stocks (aprotinin, leupeptin, and phosphoramidon were prepared in binding buffer without BSA and protease inhibitors; pepstatin and PMSF were prepared in methanol), stored in 1 mL aliquots at −70° C., and added to the binding buffer on the day of the procedure.
Wash buffer was prepared containing Trizma-HCl, MgCl2 and EDTA, the pH was adjusted to 7.2 with NaOH, and stored at 4° C.
Filter Soak Buffer (pH 7.2)
BSA was weighed out on the day of the procedure and added to 300 mL of wash buffer. The filter soak buffer was used for two procedures before being discarded.
A portion of the stock solution was diluted in binding buffer to a concentration of 200 pM.
FSH Solution for Determining Non-specific Binding: Purified human FSH was prepared as a 100 μM solution in binding buffer without protease inhibitors. […]

FSH receptor [2] = target: T1, FSH receptor; test: In Vitro Bio-test Procedure of Agonists and Antagonists to the FSH Receptor (cAMP accumulation in CHO-3D2 cells); assay type: cell-based; design: expressed in transfected cells; host or cells: CHO-3D2 cells
Description: In Vitro Bio-test Procedure of Agonists and Antagonists to the FSH Receptor
The compounds were subsequently diluted in sterile procedure medium (Optimem (Gibco/BRL, Grand Island, N.Y.)/0.1% BSA) prior to use in the bio-procedure.
Preparation of CHO-3D2 Cells; CHO-3D2 cells were plated into 96-well Nunc tissue culture plates at a density of 30,000 cells/well in DMEM/F12 medium (Gibco/BRL, Grand Island, N.Y.) supplemented with 5% Fetal Bovine Serum (Hyclone, Fetal Clone II), 2 mM L-glutamine and penicillin/streptomycin (100 U/mL). Cells were plated one day prior to performing the bio-procedure.
Procedure: On the day of procedure, the wells were washed two times with 100 ul/well of pre-warmed (37 deg C.) procedure medium. After aspirating the second wash, an additional 100 ul of procedure medium was added to each well and the cells pre-incubated for 30-45 minutes at 37 deg C. In a humidified incubator with 5%CO2/95% air. The cells were then challenged with varying dilutions of the test substance(s) in a 50 ul total incubation volume in procedure medium for 30 minutes at 37 deg C. in the humidified incubator. The challenge was terminated by the addition of 50 ul of 0.2 N HCl to each well. CAMP accumulation in the medium was measured by radioimmunoassay.
Test Groups: In the 96-well format, the plate is organized into 12 columns each containing 8 rows of wells. The plate was split in half to test a single compound in both agonist and antagonist mode on the same plate.
For agonist mode, compounds were tested using 5 different concentrations in a dose-response paradigm using one column as a control (challenge medium alone) in agonist mode.
The 96-well format allowed for the capability to test 4 columns of compound, using one of the remaining columns for negative control (challenge medium alone) and the other remaining column for ampositive control (ED20 of FSH alone).
The doses chosen to test each compound were extrapolated from the initial screening process (receptor binding data). Along with the test compounds, FSH was run in agonist mode using doses ranging from 0.1 ng/mL-1000 ng/mL as a postive control. Cytotoxicity of the compounds were screened by treating cells with the highest concentration of each compound used in the cAMP procedure for 30 minutes followed by washing of the cells 2 times with 100 ul PBS. The cells were then incubated for 5 min at 37 deg C. in the presence of 50 ug/mL Fluorescein diacetate and 20 ug/mL Propidium iodide in 100 ul PBS. The cells were washed two times with 100 ul PBS followed by examination of the cells under a fluorescence microscope using a 490 nm filter. Viable cells stained green throughout, while dead cells had red fluorescent nuclei.
Analysis of Results: cAMP accumulation was expressed as fmol/mL. […] Data were analyzed statistically by analysis of variance and significant differences between treatments and control determined by Dunnett's test. In antagonist mode, a Duncan's test was used.
Reference Compounds: Test compounds were compared to the effect of purified or recombinant human FSH.

Compound	IC50 (FSH receptor [1])	IC50 (FSH receptor [2])	IC50 (FSH receptor [2]; antagonist mode, inhibition of hFSH-induced cAMP accumulation (ED20 of FSH, […]), CHO-3D2 cells)
COc1ccc(C(=O)Nc2ccc(/C=C/c3ccc(NC(=O)c4ccc(OC)c(S(=O)(=O)NCCN5CCOCC5)c4)cc3S(=O)(=O)O)c(S(=O)(=O)O)c2)cc1S(=O)(=O)NCCN1CCOCC1 [Example 30n]	1.8 µM	5.5 µM	–
COCCN(CCOC)S(=O)(=O)c1cc(C(=O)Nc2ccc(/C=C/c3ccc(NC(=O)c4ccc(OC)c(S(=O)(=O)N(CCOC)CCOC)c4)cc3S(=O)(=O)O)c(S(=O)(=O)O)c2)ccc1OC [Example 30o, 2,2′-[(E)-1,2-Ethenediyl]bis[5-[[3-[[bis(2-methoxyethyl)amino]sulfonyl]-4-methoxybenzoyl]amino]benzenesulfonic Acid]]	2.4 µM	6.2 µM	–
COc1ccc(C(=O)Nc2ccc(CCc3ccc(NC(=O)c4ccc(OC)c(S(=O)(=O)N5CCOCC5)c4)cc3S(=O)(=O)O)c(S(=O)(=O)O)c2)cc1S(=O)(=O)N1CCOCC1 [Example 30p, 2,2′-(1,2-Ethanediyl)bis[5-[[4-methoxy-3-(4-morpholinylsulfonyl)benzoyl]amino]benzenesulfonic Acid]]	2.5 µM	11 µM	–
C=CCS(=O)(=O)c1ccc(C(=O)Nc2ccc(/C=C/c3ccc(NC(=O)c4ccc(S(=O)(=O)CC=C)cc4)cc3S(=O)(=O)O)c(S(=O)(=O)O)c2)cc1 [Example 32a]	3.5 µM	2.3 µM	–
CS(=O)(=O)c1ccc(C(=O)Nc2ccc(/C=C/c3ccc(NC(=O)c4ccc(S(C)(=O)=O)s4)cc3S(=O)(=O)O)c(S(=O)(=O)O)c2)s1 [Example 32b, 2,2′-[(E)-1,2-Ethenediyl]bis[5-[[[5-(methylsulfonyl)-2-thienyl]carbonyl]amino]benzenesulfonic Acid]]	3.2 µM	2.6 µM	–
COC(=O)C=CCS(=O)(=O)c1cccc(C(=O)Nc2ccc(C=Cc3ccc(NC(=O)c4cccc(S(=O)(=O)CC=CC(=O)OC)c4)cc3S(=O)(=O)O)c(S(=O)(=O)O)c2)c1 [Example 32e, 4-{3-[4-(2-{4-{3-(3-Methoxycarbonyl-prop-2-ene-1-sulfonyl)-benzoylamino]-2-sulfo-phenyl}-vinyl)-3-sulfo-phenylcarbomoyl]-benzenesulfonyl}-but-2-enoic Acid, Methyl Ester]	4.9 µM	–	9 µM
CCSc1ccc(C(=O)Nc2ccc(/C=C/c3ccc(NC(=O)c4ccc(SCC)c(S(=O)(=O)N5CCOCC5)c4)cc3S(=O)(=O)O)c(S(=O)(=O)O)c2)cc1S(=O)(=O)N1CCOCC1 [Example 32i, 2,2′-[(E)-1,2-Ethenediyl]bis[5-[[4-(ethylthio)-3-(4-morpholinylsulfonyl)benzoyl]amino]benzenesulfonic Acid]]	3.7 µM	4.9 µM	–
COCCOCCSc1ccc(C(=O)Nc2ccc(/C=C/c3ccc(NC(=O)c4ccc(SCCOCCOC)c(S(=O)(=O)N5CCOCC5)c4)cc3S(=O)(=O)O)c(S(=O)(=O)O)c2)cc1S(=O)(=O)N1CCOCC1 [Example 32o]	1.5 µM	1 µM	–

Continued, values first:

IC50 (FSH receptor [1])	IC50 (FSH receptor [2])	IC50 (FSH receptor [2]; antagonist mode, inhibition of hFSH-induced cAMP accumulation (ED20 of FSH, […]), CHO-3D2 cells)	Compound
6.2 µM	4.5 µM	–	CCN(CC)S(=O)(=O)c1cc(C(=O)Nc2ccc(/C=C/c3ccc(NC(=O)c4ccc(OC)c(S(=O)(=O)N(CC)CC)c4)cc3S(=O)(=O)O)c(S(=O)(=O)O)c2)ccc1OC [Example 33c, 2,2′-[(E)-1,2-Ethenediyl]bis[5-[[3-[(diethylamino)sulfonyl]-4-methoxybenzoyl]amino]benzenesulfonic Acid]]
16 µM	11 µM	–	COc1ccc(C(=O)Nc2ccc(/C=C/c3ccc(NC(=O)c4ccc(OC)c(S(=O)(=O)N5CCCCCC5)c4)cc3S(=O)(=O)O)c(S(=O)(=O)O)c2)cc1S(=O)(=O)N1CCCCCC1 [Example 33f]
23 µM	67 µM	–	COc1ccc(C(=O)Nc2ccc(Sc3ccc(NC(=O)c4ccc(OC)c(S(=O)(=O)N5CCOCC5)c4)cc3S(=O)(=O)O)c(S(=O)(=O)O)c2)cc1S(=O)(=O)N1CCOCC1 [Example 33h, 2,2′-Thiobis[5-[[4-methoxy-3-(4-morpholinylsulfonyl)benzoyl]amino]benzenesulfonic Acid]]
5.4 µM	9.5 µM	–	O=C(O)C=CCS(=O)(=O)c1cccc(C(=O)Nc2ccc(C=Cc3ccc(NC(=O)c4cccc(S(=O)(=O)CC=CC(=O)O)c4)cc3S(=O)(=O)O)c(S(=O)(=O)O)c2)c1 [Example 36c, 4-{3-[4-(2-{4-[3-(3-Carboxy-prop-2-ene-1-sulfonyl)-benzoylamino]-2-sulfo-phenyl}-vinyl)-3-sulfo-phenylcarbomoyl]-benzenesulfonyl}-but-2-enoic Acid]
